The source of these data is patent US12049469B2, “Compound and structural body for detecting hydrogen sulfide” (CANON KABUSHIKI KAISHA, priority 2020, dated 2024).

Series [1] can be described thus: Fluorescence intensity change of compound solution on addition of sodium sulfide (hydrogen sulfide donor) in phosphate-buffered saline. As to conditions: for ΔF0 (0 mM sodium sulfide), amount of change in fluorescence intensity / ΔF (0.2 mM sodium sulfide), amount of change in fluorescence intensity F2−F1: compound 5 μM in 1× phosphate-buffered saline pH 7.4; for ΔF0 (0 mM sodium sulfide), amount of change in fluorescence intensity: 10 minutes; for ΔF (0.2 mM sodium sulfide), amount of change in fluorescence intensity F2−F1: 10 minutes after addition; for ΔF − ΔF0, difference in amount of change in fluorescence intensity in presence or absence of sodium sulfide: compound 5 μM in PBS pH 7.4, 0.2 mM vs 0 mM sodium sulfide; for Sensitivity: grade based on ΔF−ΔF0, A to C acceptable, D unacceptable. How it is done: The compound 1 was added to 1× phosphate-buffered saline (3 mL, pH 7.4) at a concentration of 5 μM. The fluorescence intensity of the solution was immediately measured with a fluorescence spectrophotometer F-4500 (manufactured by Hitachi High-Technologies Corporation). Sodium sulfide serving as a hydrogen sulfide donor was then added to the solution at 0.2 mM. After standing for 10 minutes, the fluorescence intensity of the solution was measured. The fluorescence intensity before the addition of sodium sulfide was denoted as F1, and the fluorescence intensity 10 minutes after the addition of sodium sulfide was denoted as F2. The amount of change in fluorescence intensity (ΔF) due to the addition of sodium sulfide was calculated using the formula F2−F1. The concentration of sodium sulfide was changed to 0 mM, and the amount of change in fluorescence intensity (ΔF0) of the solution was calculated in the same manner. The difference in the amount of change in fluorescence intensity (ΔF−ΔF0) in the presence or absence of sodium sulfide was calculated.
The evaluation is based on the following criteria in the exemplary embodiments of the present disclosure. A to C are acceptable levels, and D is an unacceptable level.

Series [2] can be described thus: Behaviour of detection material in aqueous solution (precipitation, water solubility). Format: physicochemical. The text has this: To detect hydrogen sulfide and metabolites in an aqueous specimen, such as a biological sample, the present inventors have examined whether the compound disclosed as a detection material in Non Patent Literature 1 can detect hydrogen sulfide in neutral phosphate-buffered saline.

`COCCOCCOCCOCCNC(=S)Nc1ccc2c(c1)C(=O)OC21c2ccc(O)cc2Oc2cc(OC(=O)c3ccccc3/C=C(\C#N)C(=O)OCCCNC(=O)c3ccc(/N=N/c4ccc(N(C)C)cc4)cc3)ccc21` (stereo not drawn) [Compound 5]: in series [1], the “ΔF0 (0 mM sodium sulfide), amount of change in fluorescence intensity” value came to 1.2; the “ΔF (0.2 mM sodium sulfide), amount of change in fluorescence intensity F2−F1” value stood at 42.3; the “ΔF − ΔF0, difference in amount of change in fluorescence intensity in presence or absence of sodium sulfide” value (shortened to “ΔF − ΔF0, difference in amount of change”) is given as 41.1; the Sensitivity result is on record as “A (ΔF−ΔF0 is 40 or more)”.
`O=C1OC2(c3ccc(O)cc3Oc3cc(O)ccc32)c2ccccc21` [fluorescein]: the “Water solubility (comparison)” value in series [2] (compared with o-methyl fluorescein) is recorded as “higher water solubility than o-methyl fluorescein”.
Consider `CN(C)c1ccc(/N=N/c2ccc(C(=O)NCCCOC(=O)/C(C#N)=C/c3ccccc3C(=O)Oc3ccc4c(c3)Oc3cc(O)ccc3C43OC(=O)c4c(Cl)c(Cl)c(Cl)c(Cl)c43)cc2)cc1` (stereo not drawn) [Compound 7], for which, in series [1], the “ΔF0 (0 mM sodium sulfide), amount of change in fluorescence intensity” value stood at 2.2; the “ΔF (0.2 mM sodium sulfide), amount of change in fluorescence intensity F2−F1” value is recorded as 8.8; the “ΔF − ΔF0, difference in amount of change” value is reported as 6.5; the Sensitivity entry was “D (ΔF−ΔF0 is less than 15)”.
For `CN(C)c1ccc(/N=N/c2ccc(C(=O)NCCCOC(=O)/C(C#N)=C/c3ccccc3C(=O)Oc3ccc4c(c3)Oc3cc(O)ccc3C43OC(=O)c4cc(NC(=S)NCC(=O)O)ccc43)cc2)cc1` (stereo not drawn) [Compound 3], in series [1], the “ΔF0 (0 mM sodium sulfide), amount of change in fluorescence intensity” value came to 6.8; the “ΔF (0.2 mM sodium sulfide), amount of change in fluorescence intensity F2−F1” value was 36.9; the “ΔF − ΔF0, difference in amount of change” value is on record as 30.1; the Sensitivity result was “B (ΔF−ΔF0 is 25 or more and less than 40)”.
As for `CN(C)c1ccc(/N=N/c2ccc(C(=O)NCCCOC(=O)/C(C#N)=C/c3ccccc3C(=O)Oc3cc4c(cc3F)C3(OC(=O)c5ccccc53)c3cc(F)c(O)cc3O4)cc2)cc1` (stereo not drawn) [Compound 6], in series [1], the “ΔF0 (0 mM sodium sulfide), amount of change in fluorescence intensity” value amounted to 13.3; the “ΔF (0.2 mM sodium sulfide), amount of change in fluorescence intensity F2−F1” value was 34.0; the “ΔF − ΔF0, difference in amount of change” value came to 20.7; the Sensitivity entry was “C (ΔF−ΔF0 is 15 or more and less than 25)”.
For the compound `COC(=O)/C(C#N)=C/c1ccccc1C(=O)Oc1ccc2c(c1)Oc1cc(OC)ccc1C21OC(=O)c2ccccc21` (stereo not drawn) [Compound 2, reference compound], in series [1], the “ΔF0 (0 mM sodium sulfide), amount of change in fluorescence intensity” value is recorded as −0.4; the “ΔF (0.2 mM sodium sulfide), amount of change in fluorescence intensity F2−F1” value worked out at 11.4; the “ΔF − ΔF0, difference in amount of change” value stood at 11.8; the Sensitivity result is “D (ΔF−ΔF0 is less than 15)”. In series [2] (neutral phosphate-buffered saline), the “Precipitate or aggregate formation in solution” value was “a precipitate or aggregate of the detection material is formed in the solution”.
For `CN(C)c1ccc(/N=N/c2ccc(C(=O)NCCCOC(=O)/C(C#N)=C/c3ccccc3C(=O)Oc3ccc4c(c3)Oc3cc(O)ccc3C43OC(=O)c4ccccc43)cc2)cc1` (stereo not drawn) [Compound 1], in series [1], the “ΔF0 (0 mM sodium sulfide), amount of change in fluorescence intensity” value was determined as 1.1; the “ΔF (0.2 mM sodium sulfide), amount of change in fluorescence intensity F2−F1” value was 42.8; the “ΔF − ΔF0, difference in amount of change” value is recorded as 41.7; the Sensitivity result is listed as “A (ΔF−ΔF0 is 40 or more)”.
In the case of `CN(C)c1ccc(/N=N/c2ccc(C(=O)NCCCOC(=O)/C(C#N)=C/c3ccccc3C(=O)Oc3cc4c(cc3Cl)C3(OC(=O)c5ccccc53)c3cc(Cl)c(O)cc3O4)cc2)cc1` (stereo not drawn) [Compound 4], in series [1], the “ΔF0 (0 mM sodium sulfide), amount of change in fluorescence intensity” value came out at 4.9; the “ΔF (0.2 mM sodium sulfide), amount of change in fluorescence intensity F2−F1” value is recorded as 10.3; the “ΔF − ΔF0, difference in amount of change” value is 5.4; the Sensitivity entry is “D (ΔF−ΔF0 is less than 15)”.
